Test results taken from patent publication US20150246898A1, “METALLOENZYME INHIBITOR COMPOUNDS” (DOW AGROSCIENCES LLC, priority 2012, published 2015).
In brackets after ≈: the same amount, converted by molar mass.

Columns and labels:
[1] = test system: Septoria tritici (ATCC 26517); experiment: Minimum Inhibitory Concentration (MIC) vs. Septoria tritici, CLSI-based microdilution; format: cell-based; settings: Zymoseptoria tritici, ATCC26517, 168 h; MIC = 50% reduction in growth of S. tritici, 7 days at 22 °C, RPMI/MOPS, 1% DMSO; read-out: Septoria Rating (MIC)
Description: Compounds of the present disclosure were assessed for their ability to inhibit the growth of a common strain of the fungal plant pathogen Septoria tritici (ATCC 26517) using a procedure based on a Clinical and Laboratory Standards Institute (CLSI) microdilution assay protocol for filamentous fungi. Stock solutions of the test compounds and standards were prepared in DMSO at 6400 μg/mL. Each stock solution was used to prepare a 2-fold dilution series ranging from 16 to 0.016 μg/mL (total of 11 compound concentrations) in RPMI-1640 (Roswell Park Memorial Institute) medium containing 3-(N-morpholino)propanesulfonic acid (MOPS) buffer and 2% DMSO. A 100 μL aliquot of the dilutions was added to columns 1 (16 μg/mL compound) through 11 (0.016 μg/mL compound) of a 96-well microtiter plate. This format was replicated in a second row of the microtiter plate. Thus, each microtiter plate could include 11 concentrations of four test or control compounds replicated twice. A 100 μL aliquot of RPMI-1640/MOPS/2% DMSO medium was added to column 12 (no compound control) of the microtiter plate. A fresh culture of S. tritici was used to prepare a solution of approximately 5×10^4 colony-forming units per milliliter (cfu/mL) in RPMI/MOPS medium without DMSO. A 100 μL aliquot of this solution was added to all 96 wells in the microtiter plate. […] In each case of Table 3 the Septoria rating scale is as follows: […]

[2] = test system: Puccinia recondita tritici = Puccinia triticina (PUCCRT); experiment: Fungicidal activity vs. leaf rust on wheat plants (1-day protectant spray); format: in vivo; settings: wheat (variety Yuma) sprayed at 50 ppm, inoculated next day, disease severity evaluated 7-9 days later, read-out: Puccinia Rating (% Disease Control @ 50 ppm)
From the text: Each pot contained 3-8 seedlings. These plants were sprayed until wet with the formulated test compounds. The compounds were formulated at 50 ppm in 10 vol. % acetone plus 90 vol. % Triton X water (deionized water 99.99 wt %+0.01 wt % Triton X100), giving a “formulated test compound.” Formulated test compounds were applied to plants using a turn table sprayer fitted with two opposing air atomization nozzles which delivered approximately 1500 L/ha of spray volume. On the following day, the leaves were inoculated with an aqueous spore suspension of Puccinia recondita tritici and the plants were kept in high humidity overnight to permit spores to germinate and infect the leaf. The plants were then transferred to a greenhouse until disease developed on untreated control plants. Disease severity was evaluated 7-9 days later, depending on the speed of disease development. In each case of Table 3, the Puccinia rating scale is as follows: […]

Row | Structure (SMILES) | MIC [1] | pest or weed control at 50 ppm [2]
1 | N#Cc1ccc(C#Cc2ccc(C(F)(F)C(O)(c3cncnc3)c3ccc(F)cc3F)nc2)s1 (racemic) [Example 37] | ≤ 0.5 µg/mL | 60 to 79%
2 | OC(c1cncnc1)(c1ccc(F)cc1F)C(F)(F)c1ccc(OCc2ccc(C(F)(F)F)cc2)cn1 (racemic) [Example 65] | ≤ 0.5 µg/mL | 80 to 100%
3 | COc1ccc(Oc2ccc(C(F)(F)C(O)(c3cncnc3)c3ccc(F)cc3F)nc2)cc1 (racemic) [Example 42] | 0.5 to 1.5 µg/mL (≈ 1.06 to 3.18 µM) | 80 to 100%
4 | OC(c1cncnc1)(c1ccc(F)cc1F)C(F)(F)c1ccc(OCc2ccc(Cl)cc2F)cn1 (racemic) [Example 10] | ≤ 0.5 µg/mL | 80 to 100%
5 | CC(C)C(O)(c1cncnc1)C(F)(F)c1ccc(C#Cc2cccc(C#N)c2)cn1 (racemic) [Example 67] | ≤ 0.5 µg/mL | < 40%
6 | N#Cc1ccc(C#Cc2ccc(C(F)(F)C(O)(c3cncnc3)c3ccc(F)cc3F)nc2)cc1 (racemic) [Example 5, 4-((6-(2-(2,4-difluorophenyl)-1,1-difluoro-2-hydroxy-2-(pyrimidin-5-yl)ethyl)pyridin-3-yl)ethynyl)benzonitrile] | ≤ 0.5 µg/mL | 80 to 100%
7 | Nc1ccc(C#Cc2ccc(C(F)(F)C(O)(c3cncnc3)c3ccc(F)cc3F)nc2)cc1 (racemic) [Example 20, 2-(5-((4-Aminophenyl)ethynyl)pyridin-2-yl)-1-(2,4-difluorophenyl)-2,2-difluoro-1-(pyrimidin-5-yl)ethanol] | ≤ 0.5 µg/mL | 60 to 79%
8 | CC(C)C(O)(c1cncnc1)C(F)(F)c1ccc(C#Cc2ccc(C#N)cc2)cn1 (racemic) [Example 35] | 0.5 to 1.5 µg/mL (≈ 1.24 to 3.71 µM) | < 40%
9 | COc1ccc(C#Cc2ccc(C(F)(F)C(O)(c3cncnc3)c3ccc(F)cc3F)nc2)cc1 (racemic) [Example 15] | ≤ 0.5 µg/mL | 60 to 79%
10 | N#Cc1ccc(C#Cc2ccc(C(F)(F)C(O)(c3ccc(Cl)cc3)c3cncnc3)nc2)cc1 (racemic) [Example 43] | ≤ 0.5 µg/mL | 60 to 79%
11 | OC(c1cncnc1)(c1ccc(F)cc1F)C(F)(F)c1ccc(C#Cc2ccc(Cl)cc2)cn1 (racemic) [Example 13] | ≤ 0.5 µg/mL | 80 to 100%
12 | N#Cc1ccc(C#Cc2ccc(C(F)(F)C(O)(c3cncnc3)c3ccc(F)cc3F)nc2)c(F)c1 (racemic) [Example 12, 4-((6-(2-(2,4-Difluorophenyl)-1,1-difluoro-2-hydroxy-2-(pyrimidin-5-yl)ethyl)pyridin-3-yl)ethynyl)-3-fluorobenzonitrile] | ≤ 0.5 µg/mL | 80 to 100%
13 | CNc1ccc(C#Cc2ccc(C(F)(F)C(O)(c3cncnc3)c3ccc(F)cc3F)nc2)cc1 (racemic) [Example 7, 1-(2,4-difluorophenyl)-2,2-difluoro-2-(5-((4-(methylamino)phenyl)ethynyl)pyridin-2-yl)-1-(pyrimidin-5-yl)ethanol] | ≤ 0.5 µg/mL | < 40%
14 | N#Cc1ccc(C#Cc2ccc(C(F)(F)C(O)(c3cncnc3)c3ccc(F)cc3F)nc2)cc1F (racemic) [Example 11] | ≤ 0.5 µg/mL | 80 to 100%
15 | OC(c1cncnc1)(c1ccc(F)cc1F)C(F)(F)c1ccc(OCc2ccc(Cl)cc2)cn1 (racemic) [Example 41] | ≤ 0.5 µg/mL | 80 to 100%
16 | CC(C)(C)C(O)(c1cncnc1)C(F)(F)c1ccc(C#Cc2ccc(Cl)cc2)cn1 (racemic) [Example 62] | ≤ 0.5 µg/mL | < 40%
17 | CC(C)C(O)(c1cncnc1)C(F)(F)c1ccc(C#Cc2ccc(Cl)cc2)cn1 (racemic) [Example 64] | ≤ 0.5 µg/mL | < 40%
18 | OC(c1cncnc1)(c1ccc(F)cc1F)C(F)(F)c1ccc(Oc2cccc(Cl)c2)cn1 (racemic) [Example 47] | 0.5 to 1.5 µg/mL (≈ 1.05 to 3.15 µM) | 80 to 100%
19 | OC(c1cncnc1)(c1ccc(F)cc1F)C(F)(F)c1ccc(C#Cc2ccc(OC(F)(F)F)cc2)cn1 (racemic) [Example 14] | ≤ 0.5 µg/mL | 80 to 100%
